Laboratory results published in PubChem BioAssay AID492970 (The Scripps Research Institute Molecular Screening Center, 2010).

Target: Protein-arginine deiminase type-4 (Homo sapiens) (UniProt Q9UM07)
Assay: IC50 against protein arginine deiminase 4 – biochemical, fluorescence readout, dose response (AID 492970)
Conditions: recombinant PAD4, BAEE citrulline colorimetric readout

Protein-arginine deiminase type-4 (Homo sapiens), sequence (Q9UM07 whole entry, looked up): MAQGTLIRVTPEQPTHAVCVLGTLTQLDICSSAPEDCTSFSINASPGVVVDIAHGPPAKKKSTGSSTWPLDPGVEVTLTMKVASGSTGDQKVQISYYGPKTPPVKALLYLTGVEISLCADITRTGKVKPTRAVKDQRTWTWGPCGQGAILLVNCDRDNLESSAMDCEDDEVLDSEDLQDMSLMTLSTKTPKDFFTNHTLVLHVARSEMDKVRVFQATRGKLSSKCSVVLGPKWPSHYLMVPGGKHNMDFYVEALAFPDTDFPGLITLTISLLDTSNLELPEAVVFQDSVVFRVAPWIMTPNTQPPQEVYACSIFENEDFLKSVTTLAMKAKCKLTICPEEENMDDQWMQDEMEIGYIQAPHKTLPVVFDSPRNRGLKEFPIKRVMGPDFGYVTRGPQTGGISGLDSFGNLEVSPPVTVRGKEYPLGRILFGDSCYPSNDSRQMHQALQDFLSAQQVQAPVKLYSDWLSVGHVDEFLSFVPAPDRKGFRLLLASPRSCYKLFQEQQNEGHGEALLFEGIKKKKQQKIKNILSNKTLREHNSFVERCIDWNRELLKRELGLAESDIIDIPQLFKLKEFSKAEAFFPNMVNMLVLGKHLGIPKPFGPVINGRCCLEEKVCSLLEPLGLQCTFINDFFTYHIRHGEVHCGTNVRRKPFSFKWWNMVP

COC1=C(N)C(=O)c2nc(-c3nc(C(=O)O)c(C)c(-c4ccc(OC)c(OC)c4O)c3N)ccc2C1=O
IC50: 2500 nM
